Source: the supplement of paper PMC10307832

Assays:
Assay in all cases: relative viability (nuclei count vs DMSO), 5 days (fraction); higher = more cells survive
[1] = system: EKVX
Summary of the method: (§1)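 Lung cancer cell lines, seeded in 1536-well plates, were treated the following day by pin tool with a single drug or with five library-drug doses (not always all listed) in √10 steps on top of a fixed anchor-drug dose. Cells were fixed and nuclei stained in one step after 5 days, and nuclei were counted. Relative viability is the nuclei count for treated wells divided by that for vehicle wells, reported as medians of duplicate plates.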

[2] = system: NCI-H1993
Summary of the method: as §1

[3] = system: NCI-H838
Summary of the method: as §1

[4] = system: BEN
Summary of the method: as §1

[5] = system: NCI-H1666
Summary of the method: as §1

[6] = system: PC-3 [JPC-3]
Summary of the method: as §1

[7] = system: LC-2-ad
Summary of the method: as §1

[8] = system: NCI-H460
Summary of the method: as §1

[9] = system: LCLC-97TM1
Summary of the method: as §1

[10] = system: SW 1573
Summary of the method: as §1

[11] = system: LU99A
Summary of the method: as §1

[12] = system: NCI-H1355
Summary of the method: as §1

[13] = system: NCI-H1793
Summary of the method: as §1

[14] = system: A-427
Summary of the method: as §1

[15] = system: NCI-H520
Summary of the method: as §1

[16] = system: NCI-H2228
Summary of the method: as §1

[17] = system: LOU-NH91
Summary of the method: as §1

[18] = system: NCI-H1650
Summary of the method: as §1

[19] = system: NCI-H23
Summary of the method: as §1

[20] = system: NCI-H1915
Summary of the method: as §1

[21] = system: RERF-LC-KJ
Summary of the method: as §1

[22] = system: NCI-H2347
Summary of the method: as §1

With Cc1cnc(-c2cnc(NCCNc3ccc(C#N)cn3)nc2-c2ccc(Cl)cc2Cl)[nH]1 + CC1(C)CCC(c2ccc(Cl)cc2)=C(CN2CCN(c3ccc(C(=O)NS(=O)(=O)c4ccc(N[C@H](CCN5CCOCC5)CSc5ccccc5)c(S(=O)(=O)C(F)(F)F)c4)cc3)CC2)C1 [Navitoclax] (partner 0.5 µM) the relative viability ([1]; first compound 0.08 µM) was 0.715, the relative viability ([1]; first compound 0.253 µM) was 0.844 and the relative viability ([1]; first compound 0.8 µM) was 0.905. It also gave a relative viability ([1]; first compound 2.53 µM) of 0.814, a relative viability ([2]; first compound 0.08 µM) of 0.976 and a relative viability ([2]; first compound 0.253 µM) of 0.906. The relative viability ([2]; first compound 0.8 µM) was 0.996, the relative viability ([2]; first compound 2.53 µM) was 0.882 and the relative viability ([3]; first compound 0.08 µM) was 1.21. It also gave a relative viability ([3]; first compound 0.253 µM) of 1.11, a relative viability ([3]; first compound 0.8 µM) of 1.44 and a relative viability ([3]; first compound 2.53 µM) of 1.6. For the same molecule, the relative viability ([4]; first compound 0.08 µM) was 0.0701, the relative viability ([4]; first compound 0.253 µM) was 0.0548 and the relative viability ([4]; first compound 0.8 µM) was 0.0658. It also gave a relative viability ([4]; first compound 2.53 µM) of 0.0673, a relative viability ([5]; first compound 0.08 µM) of 0.921 and a relative viability ([5]; first compound 0.253 µM) of 0.868. For the same molecule, the relative viability ([5]; first compound 0.8 µM) was 0.835, the relative viability ([5]; first compound 2.53 µM) was 1.26 and the relative viability ([6]; first compound 0.08 µM) was 0.81. The relative viability ([6]; first compound 0.253 µM) was 0.71, the relative viability ([6]; first compound 0.8 µM) was 0.809 and the relative viability ([6]; first compound 2.53 µM) was 0.729. For the same molecule, the relative viability ([7]; first compound 0.08 µM) was 0.53, the relative viability ([7]; first compound 0.8 µM) was 0.452 and the relative viability ([7]; first compound 2.53 µM) was 0.5. It also gave a relative viability ([8]; first compound 0.08 µM) of 1.16, a relative viability ([8]; first compound 0.253 µM) of 1.12 and a relative viability ([8]; first compound 0.8 µM) of 1.17. The relative viability ([8]; first compound 2.53 µM) was 1.04, the relative viability ([9]; first compound 0.08 µM) was 0.41 and the relative viability ([9]; first compound 0.253 µM) was 0.377. It also gave a relative viability ([9]; first compound 0.8 µM) of 0.42, a relative viability ([9]; first compound 2.53 µM) of 0.4 and a relative viability ([10]; first compound 0.08 µM) of 1.29. It also gave a relative viability ([10]; first compound 0.253 µM) of 0.801, a relative viability ([10]; first compound 0.8 µM) of 1.01 and a relative viability ([10]; first compound 2.53 µM) of 0.685. The relative viability ([11]; first compound 0.08 µM) was 0.858, the relative viability ([11]; first compound 0.253 µM) was 0.808 and the relative viability ([11]; first compound 0.8 µM) was 0.794. For the same molecule, the relative viability ([11]; first compound 2.53 µM) was 0.823, the relative viability ([12]; first compound 0.08 µM) was 1.03 and the relative viability ([12]; first compound 0.253 µM) was 0.858. The relative viability ([12]; first compound 0.8 µM) was 0.884, the relative viability ([12]; first compound 2.53 µM) was 0.938 and the relative viability ([13]; first compound 0.08 µM) was 0.399. For the same molecule, the relative viability ([13]; first compound 0.253 µM) was 0.446, the relative viability ([13]; first compound 0.8 µM) was 0.283 and the relative viability ([13]; first compound 2.53 µM) was 0.354. For the same molecule, the relative viability ([14]; first compound 0.08 µM) was 0.939, the relative viability ([14]; first compound 0.253 µM) was 0.947 and the relative viability ([14]; first compound 0.8 µM) was 0.973. The relative viability ([14]; first compound 2.53 µM) was 0.925, the relative viability ([15]; first compound 0.08 µM) was 1.22 and the relative viability ([15]; first compound 0.253 µM) was 1.13. For the same molecule, the relative viability ([15]; first compound 0.8 µM) was 1.24, the relative viability ([15]; first compound 2.53 µM) was 1.13 and the relative viability ([16]; first compound 0.08 µM) was 0.854. It also gave a relative viability ([16]; first compound 0.253 µM) of 1.14, a relative viability ([16]; first compound 0.8 µM) of 0.796 and a relative viability ([16]; first compound 2.53 µM) of 0.536. The relative viability ([17]; first compound 0.08 µM) was 0.821, the relative viability ([17]; first compound 0.253 µM) was 0.679 and the relative viability ([17]; first compound 0.8 µM) was 0.611. The relative viability ([17]; first compound 2.53 µM) was 0.633, the relative viability ([18]; first compound 0.08 µM) was 1.13 and the relative viability ([18]; first compound 0.253 µM) was 1.05. The relative viability ([18]; first compound 0.8 µM) was 1.42, the relative viability ([18]; first compound 2.53 µM) was 1.21 and the relative viability ([19]; first compound 0.08 µM) was 0.875. The relative viability ([19]; first compound 0.253 µM) was 0.87, the relative viability ([19]; first compound 0.8 µM) was 0.63 and the relative viability ([19]; first compound 2.53 µM) was 0.785. For the same molecule, the relative viability ([20]; first compound 0.08 µM) was 0.85, the relative viability ([20]; first compound 0.8 µM) was 0.704 and the relative viability ([20]; first compound 2.53 µM) was 0.778. The relative viability ([21]; first compound 0.08 µM) was 1.08, the relative viability ([21]; first compound 0.253 µM) was 0.626 and the relative viability ([21]; first compound 0.8 µM) was 0.905. The relative viability ([21]; first compound 2.53 µM) was 0.776, the relative viability ([22]; first compound 0.08 µM) was 0.947 and the relative viability ([22]; first compound 0.253 µM) was 0.625. The relative viability ([22]; first compound 0.8 µM) was 0.832 and the relative viability ([22]; first compound 2.53 µM) was 0.857.
